Measurements from patent US20250122221A1 (NANJING ZAIMING PHARMACEUTICAL CO., LTD., priority 2022, published 2025).
pIC50: −log10 of the molar value. Read-outs that look alike come from different tables or passages of the source.

Columns and labels:
DLD-1 parental cells = test: Inhibition of tumour cell proliferation, 7 days, CTG; assay type: cell-based; conditions: Homo sapiens, read-out: DLD-1 parental cell IC50
Method: (§1) Brief introduction to the experimental principle: The compounds were co-incubated with tumour cells for 7 days, and then a CTG kit from Promega Inc was used to quantify ATP in viable cells, thus reflecting the effect of the compounds on tumour cell proliferation.
(§2) Experimental method: DLD-1 parental cells or DLD-1 BRCA2 (−/−) cells were diluted with RPMI 1640 medium containing 10% FBS, and then added to a 96-well plate (90 μL/well), with the number of cells being 600 cells/well or 1200 cells/well, respectively, and cultured overnight in a 37° C., 5% CO2 incubator. The compounds to be tested were diluted to different concentrations in dimethyl sulfoxide (DMSO), and then added to a 96-well plate. The final concentration of the compounds in the reaction system started from 25 μM, and was subjected to 4-fold gradient dilution. The concentration range of the compounds was from 25 μM to 0.0004 μM, and the final concentration of DMSO was 0.25% v/v. After 7 days of incubation, 50 μL/well CTG was added, and the mixture was incubated at room temperature for 10 minutes. Subsequently, the luminescence (Lum) signal value was read with an Envision microplate reader, and the inhibition rate and half inhibitory concentration (IC50) were calculated.
(§3) The inhibition rate was calculated, and XLfit software was used to perform fitting to obtain IC50 of the compounds.
(§4) In the experiment, a blank well and a DMSO well were set up, respectively.
(§5) Inhibition rate=100*(Lummax−Lumcompound)/(Lummax−Lummin)%, • where Lummax refers to the luminescence signal value of the well containing cells and 0.25% v/v DMSO; Lumcompound refers to the luminescence signal value of the well containing the compound and cells; and Lummin refers to the luminescence signal value of the well containing the medium and 0.25% v/v DMSO.

DLD-1 BRCA2 (−/−) cells = test: as above; assay type: cell-based; conditions: Homo sapiens, read-out: DLD-1 BRCA2 (−/−) IC50
Method: as §1, §2, §3, §4, §5

[1] = biological target: N-terminal active peptide segment (MI-N899) of POLQ with ATPase activity (Homo sapiens (Human), UniProt O75417); test: POLQ enzyme activity inhibition experiment (ATPase, NADH-coupled, OD 340 nm); assay type: biochemical; conditions: 100 nM POLQ (N), 100 μM ATP, 300 nM dT50
N-terminal active peptide segment (MI-N899) of POLQ with ATPase activity, sequence (O75417 1-899 limits assumed): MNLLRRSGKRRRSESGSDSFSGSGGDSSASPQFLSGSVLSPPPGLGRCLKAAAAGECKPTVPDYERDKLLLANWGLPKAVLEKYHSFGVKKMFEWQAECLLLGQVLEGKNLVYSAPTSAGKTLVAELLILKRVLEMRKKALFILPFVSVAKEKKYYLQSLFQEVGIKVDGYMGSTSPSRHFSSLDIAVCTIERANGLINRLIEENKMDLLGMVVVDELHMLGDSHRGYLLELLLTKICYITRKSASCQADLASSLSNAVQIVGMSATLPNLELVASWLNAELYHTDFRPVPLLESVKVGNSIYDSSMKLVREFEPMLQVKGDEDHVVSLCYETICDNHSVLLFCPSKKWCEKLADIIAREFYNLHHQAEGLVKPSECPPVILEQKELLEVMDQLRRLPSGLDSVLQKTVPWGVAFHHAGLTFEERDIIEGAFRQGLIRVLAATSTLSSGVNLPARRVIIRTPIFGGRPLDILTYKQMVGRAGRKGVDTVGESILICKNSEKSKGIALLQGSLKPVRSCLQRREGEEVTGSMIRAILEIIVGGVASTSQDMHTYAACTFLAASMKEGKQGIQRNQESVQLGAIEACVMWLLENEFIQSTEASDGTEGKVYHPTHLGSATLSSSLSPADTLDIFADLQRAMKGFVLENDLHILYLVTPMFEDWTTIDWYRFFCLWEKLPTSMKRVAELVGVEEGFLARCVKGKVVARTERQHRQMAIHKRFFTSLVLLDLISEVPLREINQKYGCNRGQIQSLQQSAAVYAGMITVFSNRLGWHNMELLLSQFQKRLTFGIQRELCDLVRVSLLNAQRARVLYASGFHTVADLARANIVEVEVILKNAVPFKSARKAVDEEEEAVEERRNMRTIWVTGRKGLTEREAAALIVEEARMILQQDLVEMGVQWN
Method: The Envision microplate reader from Perkin Elmer Inc was used to measure the reduction of OD value of NADH at 340 nm, thus reflecting the enzyme activity. Experimental method: The POLQ enzyme was diluted to 100 nM with a reaction buffer (20 mM Tris HCl (pH 7.80), 80 mM KCl, 10 mM MgCl2, 1 mM DTT, 0.01% w/v bovine serum albumin, 0.01% v/v Tween-20, and 5% v/v glycerol). The compounds to be tested were diluted to different concentrations in dimethyl sulfoxide (DMSO) using the Echo 650 pipetting system, and transferred to a 384-well plate, 20 μL/well of 100 nM POLQ was added, and the mixture was incubated at room temperature for 15 minutes. A reaction mixture solution was formulated, and the concentration of each component in the reaction mixture solution was: 100 μM ATP, 300 nM […], 300 μM NADH, 6 mM PEP, 10 U/mL lactate dehydrogenase and 20 U/mL pyruvate kinase. 20 μL/well of reaction mixture solution was added to start the enzyme reaction. […] The concentration range was from 10 μM to 0.0005 μM, and the final concentration of DMSO in the system was 0.2% v/v. The 384-well plate was reacted at room temperature for 20 minutes, and then the OD value at 340 nm was read with an Envision microplate reader. The inhibition rate was calculated, and XLfit software was used to perform fitting to obtain IC50 of the compounds. In the experiment, a blank group and a DMSO group were set up, respectively.

[2] = 168 h, DLD-1 parental cells, 7 days of incubation, CTG
[3] = 168 h, DLD-1 BRCA2 (−/−) cells, 7 days of incubation, CTG

Row | Structure (SMILES) | pIC50 (DLD-1 parental cells; [2]) | pIC50 (DLD-1 BRCA2 (−/−) cells; [3]) | pIC50 [1] | pIC50 (DLD-1 parental cells; DLD-1, 168 h) | pIC50 (DLD-1 BRCA2 (−/−) cells; DLD-1, 168 h)
1 | COc1ccc(C#N)cc1-c1cc(C#N)ncc1C(=O)Nc1nc2ncc(-c3ccc(C#N)cc3)nc2s1 [Compound 33, 6-cyano-4-(5-cyano-2-methoxyphenyl)-N-(6-(4-cyanophenyl)thiazolo[4,5-b]pyrazin-2-yl)pyridine-3-carboxamide] | < 5.00 | > 6.70 | > 7.00 |  | 
2 | COc1cnc(C)cc1-c1cc(C)ncc1C(=O)Nc1nc2ncc(-c3ccc(C#N)cc3)nc2s1 [Compound 21, N-(6-(4-cyanophenyl)thiazolo[4,5-b]pyrazin-2-yl)-5′-methoxy-2′,6-dimethyl-[4,4′-bipyridine]-3-carboxamide] | < 5.00 | > 6.70 | > 7.00 |  | 
3 | Cc1cc(-c2cc(Cl)ccc2OC2CC2)c(C(=O)Nc2nc3ncc(-c4ccc(C#N)cc4)nc3s2)cn1 [Compound 94, 4-(5-chloro-2-cyclopropoxyphenyl)-N-(6-(4-cyanophenyl)thiazolo[4,5-b]pyrazin-2-yl)-6-methylpyridine-3-carboxamide] |  |  | > 7.00 | < 5.00 | > 6.70
4 | C#Cc1ccccc1-c1cc(C)ncc1C(=O)Nc1nc2ncc(-c3ccc(C#N)cc3)nc2s1 [Compound 42, N-(6-(4-cyanophenyl)thiazolo[4,5-b]pyrazin-2-yl)-4-(2-ethynylphenyl)-6-methylpyridine-3-carboxamide] | < 5.00 | 6.30 to 6.70 | > 7.00 |  | 
5 | COc1ccc(C#N)cc1-c1cc(C)ncc1C(=O)Nc1nc2ncc(-c3ccc(Cl)cc3)nc2s1 [Compound 46, N-(6-(4-chlorophenyl)thiazolo[4,5-b]pyrazin-2-yl)-4-(5-cyano-2-methoxyphenyl)-6-methylpyridine-3-carboxamide] | < 5.00 | > 6.70 | > 7.00 |  | 
6 | COc1cnc(C)cc1-c1cc(C)ncc1C(=O)Nc1nc2ncc(-c3ccc(C(F)(F)F)cn3)nc2s1 [Compound 27, 5′-methoxy-2′,6-dimethyl-N-(6-(5-(trifluoromethyl)pyridin-2-yl)thiazolo[4,5-b]pyrazin-2-yl)-[4,4′-bipyridine]-3-carboxamide] | < 5.00 | > 6.70 | > 7.00 |  | 
7 | COc1cnc(C)cc1-c1cc(C)ncc1C(=O)Nc1nc2ncc(-c3ccc(C(C)(C)C#N)cn3)nc2s1 [Compound 68, N-[6-[5-(1-cyano-1-methyl-ethyl)pyridin-2-yl]thiazolo[4,5-b]pyrazin-2-yl]-4-(5-methoxy-2-methylpyridine-4-yl)-6-methyl-pyridine-3-carboxamide] | < 5.00 | > 6.70 | > 7.00 |  | 
8 | COc1ccc(C2CC2)cc1-c1cc(C)ncc1C(=O)Nc1nc2ncc(-c3ccc(C#N)cc3)nc2s1 [Compound 84, N-(6-(4-cyanophenyl)thiazolo[4,5-b]pyrazin-2-yl)-4-(5-cyclopropyl-2-methoxyphenyl)-6-methylpyridine-3-carboxamide] | < 5.00 | > 6.70 | > 7.00 |  | 
9 | COc1cnc(Cl)cc1-c1cc(C)ncc1C(=O)Nc1nc2ncc(-c3ccc(C#N)cn3)nc2s1 [Compound 61, N-(6-(5-cyanopyridin-2-yl)thiazolo[4,5-b]pyrazin-2-yl)-2′-chloro-5′-methoxy-6-methyl-[4,4-bipyridine]-3-carboxamide] | < 5.00 | > 6.70 | > 7.00 |  | 
10 | COc1ccc(Cl)cc1-c1cc(C)ncc1C(=O)Nc1nc2ncc(-c3ccc(C#N)cn3)nc2s1 [Compound 26, 4-(5-chloro-2-methoxyphenyl)-N-(6-(5-cyanopyridin-2-yl)thiazolo[4,5-b]pyrazin-2-yl)-6-methylnicotinamide] | < 5.00 | > 6.70 | > 7.00 |  | 
11 | C#Cc1ccc(F)cc1-c1cc(C)ncc1C(=O)Nc1nc2ncc(-c3ccc(C#N)cc3)nc2s1 [Compound 48, N-(6-(4-cyanophenyl)thiazolo[4,5-b]pyrazin-2-yl)-4-(2-ethynyl-5-fluorophenyl)-6-methylpyridine-3-carboxamide] | < 5.00 | 6.30 to 6.70 | > 7.00 |  | 
12 | COc1cnc(C)cc1-c1cc(C)ncc1C(=O)Nc1nc2ncc(-c3ccc(OC(F)(F)F)cc3)nc2s1 [Compound 81, 5′-methoxy-2′,6-dimethyl-N-(6-(4-(trifluoromethoxy)phenyl)thiazolo[4,5-b]pyrazin-2-yl)-[4,4′-bipyridine]-3-carboxamide] | < 5.00 | > 6.70 | > 7.00 |  | 
13 | COc1ccccc1-c1ccncc1C(=O)Nc1nc2ncc(-c3ccc(C#N)cc3)nc2s1 [Compound 16, N-(6-(4-cyanophenyl)thiazolo[4,5-b]pyrazin-2-yl)-4-(2-methoxyphenyl)nicotinamide] | < 5.00 | 6.30 to 6.70 | > 7.00 |  | 
14 | Cc1cc(-c2cc(C)ncc2C(=O)Nc2nc3ncc(-c4ccc(C#N)cc4)nc3s2)c(OC(F)F)cn1 [Compound 74, N-(6-(4-cyanophenyl)thiazolo[4,5-b]pyrazin-2-yl)-5′-(difluoromethoxy)-2′,6-dimethyl-[4,4′-bipyridine]-3-carboxamide] | < 5.00 | > 6.70 | > 7.00 |  | 
15 | COc1cnc(C)cc1-c1cc(C)ncc1C(=O)Nc1nc2ncc(-c3ccc(C4CC4)cn3)nc2s1 [Compound 24, N-(6-(5-cyclopropylpyridin-2-yl)thiazolo[4,5-b]pyrazin-2-yl)-5′-methoxy-2′,6-dimethyl-[4,4′-bipyridine]-3-carboxamide] | < 5.00 | > 6.70 | > 7.00 |  | 
16 | COc1ccc(C(F)(F)F)cc1-c1cc(C)ncc1C(=O)Nc1nc2ncc(-c3ccc(C#N)cc3)nc2s1 [Compound 86, N-(6-(4-cyanophenyl)thiazolo[4,5-b]pyrazin-2-yl)-4-(2-methoxy-5-(trifluoromethyl)phenyl)-6-methylpyridine-3-carboxamide] | < 5.00 | > 6.70 | > 7.00 |  | 
17 | COc1ccc(Cl)cc1-c1cc(C)ncc1C(=O)Nc1nc2ncc(-c3ccc(C4CC4)cn3)nc2s1 [Compound 77, 4-(5-chloro-2-methoxyphenyl)-N-[6-(5-cyclopropylpyridin-2-yl)thiazolo[4,5-b]pyrazin-2-yl]-6-methylpyridine-3-carboxamide] | < 5.00 | > 6.70 | > 7.00 |  | 
18 | COc1cnc(C)cc1-c1cc(C)ncc1C(=O)Nc1nc2ncc(-c3ccc(C4CC4)cc3)nc2s1 [Compound 82, N-(6-(4-cyclopropylphenyl)thiazolo[4,5-b]pyrazin-2-yl)-5′-methoxy-2′,6-dimethyl-[4,4′-bipyridine]-3-carboxamide] | < 5.00 | > 6.70 | > 7.00 |  | 
19 | COc1ccc(C2CC2)cc1-c1cc(C)ncc1C(=O)Nc1nc2ncc(-c3ccc(OC(F)F)cc3)nc2s1 [Compound 85, 4-(5-cyclopropyl-2-methoxyphenyl)-N-(6-(4-(difluoromethoxy)phenyl)thiazolo[4,5-b]pyrazin-2-yl)-6-methylpyridine-3-carboxamide] | < 5.00 | > 6.70 | > 7.00 |  | 
20 | COc1ccc(-c2cnc3nc(NC(=O)c4cnc(C)cc4-c4cc(C)ncc4OC)sc3n2)nc1 [Compound 75, 5′-methoxy-N-[6-(5-methoxypyridin-2-yl)thiazolo[4,5-b]pyrazin-2-yl]-2′,6-dimethyl-[4,4′-bipyridine]-3-carboxamide] |  |  | > 7.00 | < 5.00 | > 6.70
